Values belong to the compound of their own block, whether it stands above or below them.
Key:
[1] = test system: spontaneously hypertensive rats (SHR); assay: Hypotensive activity in SHR; assay type: in vivo, rat; settings: 3 mg/kg orally; for hypotensive activity, Blood pressure (b): measured after administration of the test compound / hypotensive activity, Blood pressure (a): measured before administration of the test compound / Duration of action: SHR; for hypotensive activity, Blood pressure (b): measured after administration of the test compound / hypotensive activity, Blood pressure (a): measured before administration of the test compound: systolic
Protocol: A test compound suspended in an aqueous carboxymethyl-cellulose solution was administered orally (dose: 3 mg/kg) to spontaneously hypertensive rats (SHR) fasted overnight. The systolic blood pressure of the rats was measured by the tail plethysmographic technique (The Journal of Laboratory and Clinical Medicine 78 (1971), page 957). The hypotensive activity of the test compound was estimated from the decreased level of blood pressure.

ACE [2] = assay: ACE-inhibitory activity in vivo, pressor response to angiotensin I, oral, rats; parameters: species or system rat; settings: for ACE-inhibitory activity (%): normotensive rats, 1 mg/kg orally, angiotensin I 300 ng/kg i.v.
Protocol: Normotensive rats were anesthetized with urethane (1.2 g/kg, s.c.), and angiotensin I (300 ng/kg) was injected into the jugular vein of the rats. The pressor response to angiotensin I was measured with a pressure transducer connected to the carotid artery. Then, a test compound was administered orally thereto at a dose of 1 mg/kg, and angiotensin I (300 ng/kg) was further injected intravenously at intervals. The ACE-inhibitoryactivity of the test compound was estimated from the pressor responses to angiotensin I which were obtained before and after oral administration of the test compound.

ACE [3] = assay: ACE-inhibitory activity in vivo, pressor response to angiotensin I, intravenous, rats; parameters: species or system rat; settings: normotensive rats, 10 γ/kg intravenously, angiotensin I 300 ng/kg
Protocol: (§1) Normotensive rats and normotensive cats were anesthetized with urethane (1.2 g/kg, s.c.), and angiotensin I (rat: 300 ng/kg, cat: 600 ng/kg) was injected into the jugular vein of the rats and the femoral vein of the cats. The pressor response to angiotensin I was measured with a pressure transducer connected to the carotid artery. Then, a test compound was injected intravenously thereto at a dose of 10 γ/kg, and angiotensin I (rat: 300 ng/kg, cat: 600 ng/kg) was further injected intravenously at intervals. The ACE-inhibitory activity of the test compound was estimated by dose-response curve measured from the pressor responses to angiotensin I which were obtained before and after intravenous injection of the test compound.

ACE [4] = assay: ACE-inhibitory activity in vivo, pressor response to angiotensin I, intravenous, cats; parameters: species or system cat; settings: normotensive cats, 10 γ/kg intravenously, angiotensin I 600 ng/kg
Protocol: as §1

mice = assay: toxicity, intravenous administration to mice; assay type: in vivo; settings: 1000 mg/kg intravenously, 7 days after the administration
Protocol: Further, the toxicity of the compound (I) of the invention is remarkably low. For example, when (4S)-1-benzyl-3-{(2 S)-2-[N-((1S)-1-carboxy-3-phenylpropyl)amino]propionyl}-2-oxo-imidazolidine-4-carboxylic acid and (4S)-1-methyl-3-{(2S)-2-[N-((1S)-1-carboxy-n-nonyl)amino]propionyl}-2-oxo- imidazolidine-4-carboxylic acid were administered intravenously to mice at the dose of 1000 mg/kg, no mice died 7 days after the administration. Thus, angiotensin-dependent hypertension in mammals can be alleviated by administration of the compound (I) of the present invention or a pharmaceutically acceptable salt thereof.

[5] = biological target: T1, angiotensin-converting enzyme (ACE) isolated from pig's renal cortex (Sus scrofa, UniProt F1RRW5); assay: ACE-inhibitory activity in vitro; assay type: biochemical; settings: substrate hippuryl-histidyl-leucine, 37° C., 20 minutes
T1 construct: isolated from pig's renal cortex; from tissue; host or cells: pig renal cortex
T1 sequence (F1RRW5 34-1309): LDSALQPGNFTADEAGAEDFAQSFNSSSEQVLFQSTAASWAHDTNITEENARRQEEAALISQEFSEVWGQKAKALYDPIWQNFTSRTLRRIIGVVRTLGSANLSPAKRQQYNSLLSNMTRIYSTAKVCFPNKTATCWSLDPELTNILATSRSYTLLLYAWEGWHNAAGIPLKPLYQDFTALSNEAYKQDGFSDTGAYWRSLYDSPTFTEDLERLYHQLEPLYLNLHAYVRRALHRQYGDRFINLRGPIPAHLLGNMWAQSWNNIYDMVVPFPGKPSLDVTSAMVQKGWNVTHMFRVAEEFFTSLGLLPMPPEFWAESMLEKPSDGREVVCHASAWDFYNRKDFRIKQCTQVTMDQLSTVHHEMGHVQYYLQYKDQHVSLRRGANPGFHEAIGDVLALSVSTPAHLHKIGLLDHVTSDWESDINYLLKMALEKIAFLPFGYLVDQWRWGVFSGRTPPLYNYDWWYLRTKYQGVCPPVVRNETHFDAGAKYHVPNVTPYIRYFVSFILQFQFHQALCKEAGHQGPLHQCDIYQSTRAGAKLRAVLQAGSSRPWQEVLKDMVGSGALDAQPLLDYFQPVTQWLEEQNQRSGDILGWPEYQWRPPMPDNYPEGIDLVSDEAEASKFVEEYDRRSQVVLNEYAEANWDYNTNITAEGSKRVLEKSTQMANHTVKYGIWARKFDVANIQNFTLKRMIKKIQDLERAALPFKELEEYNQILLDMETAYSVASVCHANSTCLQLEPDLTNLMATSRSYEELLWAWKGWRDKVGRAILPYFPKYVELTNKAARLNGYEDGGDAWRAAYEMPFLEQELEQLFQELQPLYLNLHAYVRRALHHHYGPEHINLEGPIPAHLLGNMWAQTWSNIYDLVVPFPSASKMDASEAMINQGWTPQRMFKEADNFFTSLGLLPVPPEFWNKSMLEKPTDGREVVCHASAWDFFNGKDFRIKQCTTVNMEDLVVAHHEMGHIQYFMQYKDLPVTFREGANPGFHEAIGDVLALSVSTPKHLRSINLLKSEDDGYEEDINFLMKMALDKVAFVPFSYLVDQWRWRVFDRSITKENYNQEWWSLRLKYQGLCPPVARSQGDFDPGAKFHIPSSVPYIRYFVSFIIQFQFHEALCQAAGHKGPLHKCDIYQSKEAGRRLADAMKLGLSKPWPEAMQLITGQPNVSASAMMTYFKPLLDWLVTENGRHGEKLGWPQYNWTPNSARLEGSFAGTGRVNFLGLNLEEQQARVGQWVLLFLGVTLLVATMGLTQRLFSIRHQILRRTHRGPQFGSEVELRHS
Protocol: 50 μl of a solution containing 0.01 mole/liter of hippuryl-histidyl-leucine (substrate) and 0-100 μl of a test compound solution were added to 300 μl of a 0.2M tris-hydrochloric acid buffer solution containing 0.2 mole/liter of sodium chloride. The total volume of said mixture was adjusted to 450 μl with water. Then, 50 μl of angiotensin-converting enzyme (ACE) isolated from pig's renal cortex were added to the mixture, and the mixture was allowed to stand at 37° C. for 20 minutes. The amount of histidyl-leucine produced from the substrate by the action of ACE was assayed microbiologically by the use of Leuconostoc mesenteroides P-60, and the ACE-inhibitory activity of the test compound was estimated therefrom.

SMILES: CCOC(=O)[C@H](CCc1ccccc1)N[C@@H](C)C(=O)N1C(=O)N(C)C[C@H]1C(=O)O [Example 1, (4S)-1-methyl-3-{(2S)-2-[N-((1S)-1-ethoxycarbonyl-3-phenylpropyl)amino]propionyl}-2-oxo-imidazolidine-4-carboxylic acid]
hypotensive activity, Blood pressure (b): measured after administration of the test compound [1]: 136 ± 4 mm Hg
hypotensive activity, Blood pressure (a): measured before administration of the test compound [1]: 181 ± 3 mm Hg
Duration of action ([1]; 3 mg/kg): more than 6 hours
Duration of action ([1]; listed as CH3, CH3, C6 H5 (CH2)2, C2 H5, 3 mg/kg): > 6 h
decrease in blood pressure ([1]; spontaneously hypertensive rats): about 45 mmHg
ACE-inhibitory activity (%) (ACE [2]): 60 ± 6%
inhibition of ACE-activity (ACE [2]; rats administered angiotensin I intravenously, 1.0 mg/kg): about 60%

SMILES: CCCCCCCC[C@H](N[C@@H](C)C(=O)N1C(=O)N(C)C[C@H]1C(=O)O)C(=O)OCC [Example 3, (4S)-1-methyl-3-{(2S)-2-[N-((1S)-1-ethoxycarbonyl-n-nonyl)amino]propionyl}-2-oxo-imidazolidine-4-carboxylic acid]
Duration of action [1]: > 6 h
hypotensive activity, Blood pressure (b): measured after administration of the test compound [1]: 143 ± 4 mm Hg
hypotensive activity, Blood pressure (a): measured before administration of the test compound [1]: 174 ± 5 mm Hg
ACE-inhibitory activity (%) (ACE [2]): 56 ± 7%

SMILES: C[C@H](N[C@@H](CCc1ccccc1)C(=O)O)C(=O)N1C(=O)N(C)C[C@H]1C(=O)O [Example 4, (4S)-1-methyl-3-{(2S)-2-[N-((1S)-1-carboxy-3-phenylpropyl)amino]propionyl}-2-oxo-imidazolidine-4-carboxylic acid]
ACE-inhibitory activity (%) (ACE [3]): 56 ± 3%
ACE-inhibitory activity (%) (ACE [4]): 40 ± 6%

SMILES: CCCCCCCC[C@H](N[C@@H](C)C(=O)N1C(=O)N(C)C[C@H]1C(=O)O)C(=O)O [Example 5, (4S)-1-methyl-3-{(2S)-2-[N-((1S)-1-carboxy-n-nonyl)amino]propionyl}-2-oxo-imidazolidine-4-carboxylic acid]
ACE-inhibitory activity (%) (ACE [3]): 47 ± 4%
mortality (mice died) (mice): no mice died
ACE-inhibitory activity (%) (ACE [4]): 36 ± 5%

SMILES: C[C@H](N[C@@H](CCc1ccccc1)C(=O)O)C(=O)N1C(=O)N(Cc2ccccc2)C[C@H]1C(=O)O [Example 8, (4S)-1-benzyl-3-{(2S)-2-[N-((1S)-1-carboxy-3-phenylpropyl)amino]propionyl}-2-oxo-imidazolidine-4-carboxylic acid]
IC50 [5]: 1.7 nM
ACE-inhibitory activity (%) (ACE [3]): 33 ± 4%
mortality (mice died) (mice): no mice died
ACE-inhibitory activity (%) (ACE [4]): 36 ± 8%

IC50 [5]: 1.5 nM
SMILES: CCCCCCCC[C@H](N[C@@H](C)C(=O)N1C(=O)N(Cc2ccccc2)C[C@H]1C(=O)O)C(=O)O [Example 9, (4S)-1-benzyl-3-{(2S)-2-[N-((1S)-1-carboxy-n-nonyl)amino]propionyl}-2-oxo-imidazolidine-4-carboxylic acid]

IC50 [5]: 2.1 nM
SMILES: CC(C)C[C@H](N[C@@H](C)C(=O)N1C(=O)N(Cc2ccccc2)C[C@H]1C(=O)O)C(=O)O [Example 12-(2), (4S)-1-benzyl-3-{(2S)-2-[N-((1S)-1-carboxy-isopentyl)amino]propionyl}-2-oxo-imidazolidine-4-carboxylic acid]

IC50 [5]: 3.3 nM
SMILES: CC(C)CC[C@H](N[C@@H](C)C(=O)N1C(=O)N(Cc2ccccc2)C[C@H]1C(=O)O)C(=O)O [Example 13-(2), (4S)-1-benzyl-3-{(2S)-2-[N-((1S)-1-carboxy-4-methyl-n-pentyl)amino]propionyl}-2-oxo-imidazolidine-4-carboxylic acid]

IC50 [5]: 11 nM
SMILES: C[C@H](N[C@@H](Cc1ccccc1)C(=O)O)C(=O)N1C(=O)N(Cc2ccccc2)C[C@H]1C(=O)O [Example 14-(3), (4S)-1-benzyl-3-{(2S)-2-[N-((1S)-1-carboxy-2-phenylethyl)amino]propionyl}-2-oxo-imidazolidine-4-carboxylic acid]

IC50 [5]: 1.4 nM
SMILES: CCCCCCCC[C@H](N[C@@H](CC)C(=O)N1C(=O)N(Cc2ccccc2)C[C@H]1C(=O)O)C(=O)O [Example 15-(3), (4S)-1-benzyl-3-{(2S)-2-[N-((1S)-1-carboxy-n-nonyl)amino]-n-butyryl}-2-oxo-imidazolidine-4-carboxylic acid]

IC50 [5]: 2.3 nM
SMILES: CC[C@H](N[C@@H](CCc1ccccc1)C(=O)O)C(=O)N1C(=O)N(Cc2ccccc2)C[C@H]1C(=O)O [Example 17-(2), (4S)-1-benzyl-3-{(2S)-2-[N-((1S)-1-carboxy-3-phenylpropyl)amino]-n-butyryl}-2-oxo-imidazolidine-4-carboxylic acid]

Reference: patent US4508727A, “Antihypertensive 2-oxo-imidazolidine derivatives” (Tanabe Seiyaku Co., Ltd., priority 1982, dated 1985)
